The subject of this assay is L1210 leukemia ip in BDF1 mice, survival T/C. Nature of the assay: NCI In Vivo Anticancer Drug Screen. Data for tumor model L1210 Leukemia (intraperitoneal) in B6D2F1 (BDF1) mice. The note with it: endpoint: mean survival time, higher = longer survival. Put shortly: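 Mice bearing the transplanted tumor received compound or vehicle. Survival of the treated group was divided by that of the vehicle-treated control group to give the ratio.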

Setting [1] is: dose: 100.0 mg/kg/injection, schedule: Q01DX001 (ip), vehicle: saline.
[2] abbreviates: dose: 200.0 mg/kg/injection, schedule: Q01DX001 (ip), vehicle: saline.
The mark [3] stands for this setting: dose: 400.0 mg/kg/injection, schedule: Q01DX001 (ip), vehicle: saline.
[4] abbreviates: dose: 100.0 mg/kg/injection, schedule: Q04DX002 (ip), vehicle: Klucel (hydroxypropylcellulose) (HPC).
Setting [5] is: dose: 200.0 mg/kg/injection, schedule: Q04DX002 (ip), vehicle: Klucel (hydroxypropylcellulose) (HPC).
Setting [6] is: dose: 400.0 mg/kg/injection, schedule: Q04DX002 (ip), vehicle: Klucel (hydroxypropylcellulose) (HPC).
Where [7] appears, read: dose: 100.0 mg/kg/injection, schedule: Q04DX003 (ip), vehicle: saline.
Where [8] appears, read: dose: 200.0 mg/kg/injection, schedule: Q04DX003 (ip), vehicle: saline.
Where [9] appears, read: dose: 400.0 mg/kg/injection, schedule: Q04DX003 (ip), vehicle: saline.
Setting [10] is: dose: 100.0 mg/kg/injection, schedule: Q04DX003 (ip), vehicle: Klucel (hydroxypropylcellulose) (HPC).
[11] abbreviates: dose: 200.0 mg/kg/injection, schedule: Q04DX003 (ip), vehicle: Klucel (hydroxypropylcellulose) (HPC).
[12] abbreviates: dose: 400.0 mg/kg/injection, schedule: Q04DX003 (ip), vehicle: Klucel (hydroxypropylcellulose) (HPC).

SMILES strings stand for the structures. Values joined by “and” are separate entries in the source; they are usually repeats but may differ in a detail not shown here. Equal values may be shown once. Toxic doses and inconclusive results are not listed.

For the molecule `CN(C)CCc1ccc(Nc2ccnc3cc(Cl)ccc23)cc1`, the T/C (dose: 75.0 mg/kg/injection, schedule: Q01DX001 (ip), vehicle: saline) was 101 % of control; the T/C (dose: 150.0 mg/kg/injection, schedule: Q01DX001 (ip), vehicle: saline) is 98 % of control; the T/C (dose: 300.0 mg/kg/injection, schedule: Q01DX001 (ip), vehicle: saline) is 95 % of control.

Turning to `CCN(CC)C(=O)Nc1ccc(O)c(C(=O)O)c1`, the T/C was 98 % of control under setting [1], 95 % of control under setting [2] and 96 % of control under setting [3].

As to `C[C@]12CC[C@H](O)C[C@@H]1CC[C@@H]1[C@@H]2C(=O)C[C@]2(C)C3=CC(=O)O[C@H]3C[C@@H]12`, the T/C is 94 % of control and 108 % of control (dose: 5.0 mg/kg/injection, schedule: Q01DX Z (sc), vehicle: steriod suspending solution); 97 % of control and 100 % of control (dose: 10.0 mg/kg/injection, schedule: Q01DX Z (sc), vehicle: steriod suspending solution); 94 % of control and 102 % of control (dose: 20.0 mg/kg/injection, schedule: Q01DX Z (sc), vehicle: steriod suspending solution); 94 % of control and 96 % of control and 100 % of control (dose: 40.0 mg/kg/injection, schedule: Q01DX Z (sc), vehicle: steriod suspending solution); 104 % of control (dose: 80.0 mg/kg/injection, schedule: Q01DX Z (sc), vehicle: steriod suspending solution); 95 % of control (dose: 160.0 mg/kg/injection, schedule: Q01DX Z (sc), vehicle: steriod suspending solution). Moreover, the T/C reads like this: (dose: 320.0 mg/kg/injection, schedule: Q01DX Z (sc), vehicle: steriod suspending solution) 95 % of control; (dose: 640.0 mg/kg/injection, schedule: Q01DX015 (sc), vehicle: steriod suspending solution) 100 % of control; (dose: 1280.0 mg/kg/injection, schedule: Q01DX015 (sc), vehicle: steriod suspending solution) 96 % of control.

On to `CCCCNC(=O)Nc1cccc(C(F)(F)F)c1`, for which the T/C is, setting by setting: (dose: 50.0 mg/kg/injection, schedule: Q01DX001 (sc), vehicle: carboxymethylcellulose (CMC)) 106 % of control; (dose: 100.0 mg/kg/injection, schedule: Q01DX001 (sc), vehicle: carboxymethylcellulose (CMC)) 104 % of control; (dose: 200.0 mg/kg/injection, schedule: Q01DX001 (sc), vehicle: carboxymethylcellulose (CMC)) 104 % of control; (dose: 400.0 mg/kg/injection, schedule: Q01DX001 (sc), vehicle: carboxymethylcellulose (CMC)) 101 % of control.

For `COC(=O)C(CCC(=O)CN1C(=O)c2ccccc2C1=O)N1C(=O)c2ccccc2C1=O` (centres undefined), the T/C is 101 % of control (dose: 100.0 mg/kg/injection, schedule: Q04DX003 (ip), vehicle: saline with Tween-80); 99 % of control (dose: 200.0 mg/kg/injection, schedule: Q04DX003 (ip), vehicle: saline with Tween-80); 87 % of control (dose: 400.0 mg/kg/injection, schedule: Q04DX003 (ip), vehicle: saline with Tween-80).

`CC(=O)NC1CCC(C(C)(C)C)CC1` (centres undefined): the T/C is 102 % of control (dose: 100.0 mg/kg/injection, schedule: Q01DX009 (ip), vehicle: saline with Tween-80); 93 % of control under setting [4]; 108 % of control (dose: 200.0 mg/kg/injection, schedule: Q01DX009 (ip), vehicle: saline with Tween-80); 90 % of control under setting [5]; 103 % of control under setting [6].

For the molecule `CC(=O)OC1CC2CCC1(S(=O)(=O)O)C2(C)C` (centres undefined), the T/C is, setting by setting: under setting [1], 107 % of control; under setting [7], 103 % of control; under setting [2], 108 % of control; under setting [8], 103 % of control; under setting [3], 107 % of control; under setting [9], 114 % of control.

Take `COc1cccc(CNc2ccc(SC)cc2)c1OC`: the T/C is, setting by setting: (dose: 100.0 mg/kg/injection, schedule: Q01DX009 (ip), vehicle: Klucel (hydroxypropylcellulose) (HPC)) 97 % of control; under setting [10], 94 % of control; (dose: 200.0 mg/kg/injection, schedule: Q01DX009 (ip), vehicle: Klucel (hydroxypropylcellulose) (HPC)) 105 % of control; under setting [11], 91 % of control; (dose: 400.0 mg/kg/injection, schedule: Q01DX009 (ip), vehicle: Klucel (hydroxypropylcellulose) (HPC)) 94 % of control; under setting [12], 91 % of control.

In the case of `O=C(O)Cc1ccccc1Cl`, the T/C was 100 % of control (dose: 100.0 mg/kg/injection, schedule: Q01DX009 (ip), vehicle: gum acacia) and 96 % of control (dose: 200.0 mg/kg/injection, schedule: Q01DX009 (ip), vehicle: gum acacia).

`CCOC(=O)NCC(CCN(C)C)(CN(C)C)c1cccc2ccccc12` (centres undefined): the T/C by setting is: (dose: 50.0 mg/kg/injection, schedule: Q04DX002 (ip), vehicle: Klucel (hydroxypropylcellulose) (HPC)) 102 % of control; under setting [4], 106 % of control.

For the molecule `CN(N=O)C(=O)NCCCCCNC(=O)N(C)N=O`, the T/C (dose: 6.25 mg/kg/injection, schedule: Q01DX Z (ip), vehicle: carboxymethylcellulose (CMC)) was 102 % of control; the T/C (dose: 12.5 mg/kg/injection, schedule: Q01DX Z (ip), vehicle: carboxymethylcellulose (CMC)) was 100 % of control; the T/C (dose: 25.0 mg/kg/injection, schedule: Q01DX Z (ip), vehicle: carboxymethylcellulose (CMC)) was 106 % of control; the T/C (dose: 50.0 mg/kg/injection, schedule: Q01DX Z (ip), vehicle: carboxymethylcellulose (CMC)) was 108 % of control; the T/C (dose: 150.0 mg/kg/injection, schedule: Q01DX Z (ip), vehicle: carboxymethylcellulose (CMC)) is 191 % of control; the T/C (dose: 175.0 mg/kg/injection, schedule: Q01DX Z (ip), vehicle: carboxymethylcellulose (CMC)) is 166 % of control. The T/C is, setting by setting: (dose: 200.0 mg/kg/injection, schedule: Q01DX Z (ip), vehicle: carboxymethylcellulose (CMC)) 158 % of control; (dose: 210.0 mg/kg/injection, schedule: Q01DX001 (ip), vehicle: carboxymethylcellulose (CMC)) 117 % of control.

Regarding `CC1([N+](=O)[O-])COP(=O)(NCc2cccnc2)OC1` (centres undefined), the T/C was 103 % of control (dose: 50.0 mg/kg/injection, schedule: Q01DX001 (ip), vehicle: carboxymethylcellulose (CMC)); 95 % of control (dose: 100.0 mg/kg/injection, schedule: Q01DX001 (ip), vehicle: carboxymethylcellulose (CMC)); 113 % of control (dose: 200.0 mg/kg/injection, schedule: Q01DX001 (ip), vehicle: carboxymethylcellulose (CMC)); 95 % of control (dose: 400.0 mg/kg/injection, schedule: Q01DX001 (ip), vehicle: carboxymethylcellulose (CMC)).

In the case of `COc1ccc(C(=O)CC(C)=O)c(OCc2ccccc2)c1OC`, the T/C runs as follows: under setting [1], 101 % of control; under setting [2], 98 % of control; under setting [3], 104 % of control.

Turning to `COc1cc(C)n2nnnc2n1`, the T/C is 91 % of control (dose: 25.0 mg/kg/injection, schedule: Q01DX001 (ip), vehicle: saline); 96 % of control (dose: 50.0 mg/kg/injection, schedule: Q01DX001 (ip), vehicle: saline); 96 % of control under setting [1].

For `CC1CCN(C(=O)Nc2ccccc2)CC1`, the T/C under setting [4] is 98 % of control, the T/C under setting [5] was 117 % of control and the T/C under setting [6] is 103 % of control.

With `CSc1cccc(NC(=O)NCCCl)c1`, the T/C is 104 % of control under setting [10], 103 % of control under setting [11] and 93 % of control under setting [12].

For `O=[N+]([O-])c1ccc(-c2ccccc2)cc1`, the T/C reads like this: under setting [1], 102 % of control; under setting [2], 105 % of control; under setting [3], 105 % of control.

In the case of `CCOC(=O)c1n[nH]c(=S)[nH]c1=S`, the T/C runs as follows: (dose: 100.0 mg/kg/injection, schedule: Q01DX001 (ip), vehicle: acetone) 102 % of control; (dose: 200.0 mg/kg/injection, schedule: Q01DX001 (ip), vehicle: acetone) 101 % of control; (dose: 400.0 mg/kg/injection, schedule: Q01DX001 (ip), vehicle: acetone) 107 % of control.

`OCCc1nn[nH]n1`: the T/C was 104 % of control under setting [7], 93 % of control under setting [8] and 98 % of control under setting [9].

As for `Cc1cc(C)c(N(CC(=O)O)S(=O)(=O)c2ccccc2)c(C)c1Br`, the T/C runs as follows: (dose: 75.0 mg/kg/injection, schedule: Q04DX003 (ip), vehicle: Klucel (hydroxypropylcellulose) (HPC)) 92 % of control; (dose: 150.0 mg/kg/injection, schedule: Q04DX003 (ip), vehicle: Klucel (hydroxypropylcellulose) (HPC)) 90 % of control; (dose: 300.0 mg/kg/injection, schedule: Q04DX003 (ip), vehicle: Klucel (hydroxypropylcellulose) (HPC)) 90 % of control.

For the origin of these results see PubChem BioAssay AID248 (DTP/NCI, 2004).
